In article PMC11243058, “Identification of Novel Isatin Derivative Bearing a Nitrofuran Moiety as Potent Multi-Isoform Aldehyde Dehydrogenase Inhibitor” (Molecules, 2024):
Read-outs that look alike come from different tables or passages of the source.

Key:
[1] = tested on: SKOV-3; assay: Cell viability assay (MTS), SKOV-3; format: cell-based, human; conditions: 48 h, mean ± SD
Experimental: (§1) Five thousand cells/well were plated in 96-well plates in growth media and left for attachment for 24 h. The cells were then treated with the respective compounds using varying concentrations for 48 h. At the end of the treatment duration, a solution of MTS [3-(4,5-dimethylthiazol-2-yl)-5-(3-carboxymethoxyphenyl)-2-(4-sulfophenyl)-2H-tetrazolium] and an electron coupling reagent, PES (phenazine ethosulfate) (Promega, Madison, WI, USA) was added to the cells. Then, 15 μL of MTS reagent was added to each well, and the absorbance was assessed at 490 nm with a microplate reader (Dynex Technologies, MRX Revelation; Chantilly, VA, USA) after 1 h incubation with MTS. The data were recorded, and the IC50 value was calculated using non-linear curve regression analysis (Graph pad V8.0, CA, USA).

[2] = tested on: MiaPaCa-2; assay: Cell viability assay (MTS), MiaPaCa-2; format: cell-based, human; conditions: 48 h, mean ± SD
Experimental: as §1

[3] = tested on: HCT-116; assay: Cell viability assay (MTS), HCT-116; format: cell-based, human; conditions: 48 h, mean ± SD
Experimental: as §1

[4] = tested on: HEK-293; assay: Cell viability assay (MTS), HEK-293; format: cell-based; conditions: 48 h, mean ± SD
Experimental: as §1

[5] = tested on: FHC; assay: Cell viability assay (MTS), FHC; format: cell-based; conditions: normal fetal human cells, 48 h, mean ± SD
Experimental: as §1

[6] = tested on: SKOV-3, MiaPaCa-2, HCT-116, HEK-293, and FHC cell lines; assay: Cell viability assay (MTS), statements over the cell line panel; format: cell-based, human; conditions: for IC50: read-out: IC50 in cancer cell lines; for IC50 / cytotoxicity against the tested cell lines: range or statement over all tested cell lines
Experimental: as §1

[7] = biological target: T1, ALDH1A1 (Homo sapiens, UniProt P00352); assay: ALDH isoform-specific enzyme inhibition assay, ALDH1A1; format: biochemical; conditions: Acetaldehyde (Substrate)
T1 construct: purchased R&D systems
T1 sequence (P00352 1-501): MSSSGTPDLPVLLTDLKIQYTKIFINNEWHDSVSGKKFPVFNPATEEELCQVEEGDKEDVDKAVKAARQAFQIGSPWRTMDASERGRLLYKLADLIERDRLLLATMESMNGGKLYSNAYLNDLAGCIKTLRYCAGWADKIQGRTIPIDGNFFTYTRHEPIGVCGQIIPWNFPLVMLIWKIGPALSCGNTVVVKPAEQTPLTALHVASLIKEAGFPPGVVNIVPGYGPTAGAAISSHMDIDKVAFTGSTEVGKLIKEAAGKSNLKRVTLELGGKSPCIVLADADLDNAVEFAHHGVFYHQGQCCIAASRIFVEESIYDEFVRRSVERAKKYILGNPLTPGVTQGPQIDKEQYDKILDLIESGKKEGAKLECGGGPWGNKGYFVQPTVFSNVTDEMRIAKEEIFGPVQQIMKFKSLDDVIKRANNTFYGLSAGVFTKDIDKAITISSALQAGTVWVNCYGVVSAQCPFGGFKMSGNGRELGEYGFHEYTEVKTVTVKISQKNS
Experimental: (§2) ALDH1A1, ALDH3A1, and ALDH1A3 enzyme inhibition assays were performed as reported previously. Briefly, 500 ng/100 uL of ALDH1A1, ALDH3A1, and ALDH1A3 were treated with 500 nM concentration of the tested compounds and incubated for 15 min followed by the addition of reaction mixture (substrate + Substrate mixture). […] The absorbance was measured at 450 nm. [Absorbance Control–Absorbance treated/Absorbance Control]100 was used to compute the percentage of inhibition.

[8] = biological target: T2, ALDH3A1 (Homo sapiens, UniProt P30838); assay: ALDH isoform-specific enzyme inhibition assay, ALDH3A1; format: biochemical; conditions: Acetaldehyde (Substrate)
T2 construct: purchased R&D systems
T2 sequence (P30838 1-453): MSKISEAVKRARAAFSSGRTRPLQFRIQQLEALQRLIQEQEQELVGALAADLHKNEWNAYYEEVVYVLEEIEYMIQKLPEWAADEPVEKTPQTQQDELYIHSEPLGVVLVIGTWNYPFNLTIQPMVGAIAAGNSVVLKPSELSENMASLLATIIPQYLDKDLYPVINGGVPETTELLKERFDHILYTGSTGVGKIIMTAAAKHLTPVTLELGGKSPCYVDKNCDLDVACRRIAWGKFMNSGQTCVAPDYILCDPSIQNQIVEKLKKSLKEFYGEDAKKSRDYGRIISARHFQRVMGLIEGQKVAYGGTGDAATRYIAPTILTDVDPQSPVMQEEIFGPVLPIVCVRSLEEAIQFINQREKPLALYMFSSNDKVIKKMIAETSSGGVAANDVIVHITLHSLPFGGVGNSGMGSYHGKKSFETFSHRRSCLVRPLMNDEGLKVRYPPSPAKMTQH
Experimental: as §2

[9] = Homo sapiens, SK-OV-3, ovarian cancer cells
[10] = Homo sapiens, MIA PaCa-2, pancreatic cancer cells
[11] = Homo sapiens, HCT-116, colon cancer cells
[12] = HEK293, human embryonic kidney cells
[13] = Homo sapiens, Pancreatic cancer cell, 48 h
[14] = Homo sapiens, Pancreatic cancer cell, ovarian, colon, and pancreatic cancer cells, 48 h MTS

| Compound | IC50 [1, 9] | IC50 [2, 10] | IC50 [3, 11] | IC50 [4, 12] | IC50 ([5]; FHC) | IC50 [6, 13] | melting point | IC50 [6, 14] | IC50 ([1]; ovarian cancer cells) | IC50 ([2]; pancreatic cancer cells) | IC50 ([3]; colon cancer cells) | IC50 ([4]; human embryonic kidney cells) | IC50 [5] | % Enzyme Inhibition at 500 nM ALDH1A1 [7] | % Enzyme Inhibition at 500 nM ALDH3A1 [8] | IC50 ([6]; ovarian, colon, and pancreatic cancer cells, 48 h MTS) | IC50 / cytotoxicity against the tested cell lines ([6]; 48 h MTS) |
| --- | --- | --- | --- | --- | --- | --- | --- | --- | --- | --- | --- | --- | --- | --- | --- | --- | --- |
| Br.N=C(N)SCc1ccc(Cn2cc3cccc(C(F)(F)F)c3n2)cc1 [Compound 15, 4-((7-(Trifluoromethyl)-2H-indazol-2-yl)methyl)benzyl carbamimidothioate hydrobromide] | > 50 µM | > 50 µM | > 50 µM | > 50 µM | > 50 µM | > 50 µM | 195 to 197 °C | – | – | – | – | – | – | – | – | – | – |
| O=Cc1ccc(Cn2nc(Br)c3cc(C(F)(F)F)ccc32)cc1 [Compound 20, 4-((3-Bromo-5-(trifluoromethyl)-1H-indazol-1-yl)methyl)benzaldehyde] | > 50 µM | > 50 µM | > 50 µM | > 50 µM | > 50 µM | – | – | > 50 µM | – | – | – | – | – | – | – | – | – |
| Br.C=CCNC(=N)SCc1ccc(Cn2ncc3cc(C(F)(F)F)ccc32)cc1 [Compound 10, 4-((5-(Trifluoromethyl)-1H-indazol-1-yl)methyl)benzyl allylcarbamimidothioate hydrobromide] | > 50 µM | 48.4 ± 3.2 µM | > 50 µM | > 50 µM | > 50 µM | > 50 µM | 104 to 106 °C | – | – | – | – | – | – | – | – | – | – |
| Br.C=CCNC(=N)SCc1ccc(Cn2cc3cc(C(F)(F)F)ccc3n2)cc1 [Compound 11, 4-((5-(Trifluoromethyl)-2H-indazol-2-yl)methyl)benzyl allylcarbamimidothioate hydrobromide] | > 50 µM | > 50 µM | > 50 µM | > 50 µM | > 50 µM | > 50 µM | 105 to 107 °C | – | – | – | – | – | – | – | – | – | – |
| COC(=O)/C=C/c1ccc(Cn2ncc3cc(C(F)(F)F)ccc32)cc1 [Compound 8, Methyl (E)-3-(4-((5-(trifluoromethyl)-1H-indazol-1-yl)methyl)phenyl)acrylate] | > 50 µM | > 50 µM | > 50 µM | > 50 µM | > 50 µM | – | – | > 50 µM | – | – | – | – | – | – | – | – | – |
| CN(C)CCC(=O)c1ccc(Cn2nc(Br)c3cc(C(F)(F)F)ccc32)cc1.Cl [Compound 21, 1-(4-((3-Bromo-5-(trifluoromethyl)-1H-indazol-1-yl)methyl)phenyl)-3-(dimethylamino)propan-1-one hydrochloride] | > 50 µM | > 50 µM | > 50 µM | > 50 µM | > 50 µM | > 50 µM | 171 to 173 °C | – | – | – | – | – | – | – | – | – | – |
| 4-((5-(Trifluoromethyl)-1H-indazol-1-yl)methyl)benzylcarbamimidothioate hydrobromide [Compound 12] | – | – | – | – | – | – | – | – | 8.2 ± 2.7 µM | 4.7 ± 0.4 µM | 5.5 ± 0.1 µM | 4.7 ± 1.1 µM | 3.1 ± 0.8 µM | 10.01 ± 0.01% | −14.03 ± 0.06% | 4.7 to 33 µM | – |
| Br.COc1ccc2c(c1)c(Br)nn2Cc1ccc(CSC(=N)N)cc1 [Compound 18, 4-((3-Bromo-5-methoxy-1H-indazol-1-yl)methyl)benzyl carbamimidothioate hydrobromide] | 42.2 ± 5.8 µM | 44.6 ± 3.7 µM | 39.2 ± 3.9 µM | > 50 µM | > 50 µM | > 50 µM | 171 to 173 °C | – | – | – | – | – | – | – | – | – | – |
| Br.C=CCNC(=N)SCc1ccc(CN2C(=O)C(=O)c3cc(C(F)(F)F)ccc32)cc1 [Compound 7, 4-((2,3-Dioxo-5-(trifluoromethyl)indolin-1-yl)methyl)benzyl allylcarbamimidothioate hydrobromide] | 9.1 ± 1.3 µM | 10.3 ± 2.4 µM | 12 ± 3.1 µM | 9.7 ± 1.1 µM | 8.1 ± 0.8 µM | – | 122 to 124 °C | – | – | – | – | – | – | – | – | – | less cytotoxic than KS100 |
| Br.N=C(N)SCc1ccc(Cn2cc3cc(C(F)(F)F)ccc3n2)cc1 [Compound 13, 4-((5-(Trifluoromethyl)-2H-indazol-2-yl)methyl)benzyl carbamimidothioate hydrobromide] | 22.7 ± 2.3 µM | 33.2 ± 4.4 µM | 18.2 ± 3.1 µM | 18.9 ± 5.1 µM | 14.4 ± 2.3 µM | 4.7 to 33 µM | 181 to 183 °C | – | – | – | – | – | – | – | – | – | – |
| OCc1ccc(Cn2nc(Br)c3cc(C(F)(F)F)ccc32)cc1 [Compound 19, (4-((3-Bromo-5-(trifluoromethyl)-1H-indazol-1-yl)methyl)phenyl)methanol] | > 50 µM | > 50 µM | > 50 µM | > 50 µM | > 50 µM | – | – | > 50 µM | – | – | – | – | – | – | – | – | – |
| COC(=O)/C=C/c1ccc(Cn2cc3cc(C(F)(F)F)ccc3n2)cc1 [Compound 9, Methyl (E)-3-(4-((5-(trifluoromethyl)-2H-indazol-2-yl)methyl)phenyl)acrylate] | > 50 µM | > 50 µM | > 50 µM | > 50 µM | > 50 µM | – | – | > 50 µM | – | – | – | – | – | – | – | – | – |
| Br.COc1ccc2c(c1)C(=O)C(=O)N2Cc1ccc(CSC(=N)N)cc1 [Compound 6, 4-((5-Methoxy-2,3-dioxoindolin-1-yl)methyl)benzyl carbamimidothioate hydrobromide] | 45 ± 2.5 µM | > 50 µM | > 50 µM | > 50 µM | > 50 µM | – | 214 to 216 °C | – | – | – | – | – | – | – | – | – | inert |
| Br.N=C(N)SCc1ccc(Cn2ncc3cccc(C(F)(F)F)c32)cc1 [Compound 14, 4-((7-(Trifluoromethyl)-1H-indazol-1-yl)methyl)benzyl carbamimidothioate hydrobromide] | 16.8 ± 3.5 µM | 12.3 ± 2.7 µM | 14.2 ± 2.3 µM | 17.7 ± 3.7 µM | 29.3 ± 4.9 µM | – | 206 to 208 °C | – | – | – | – | – | – | – | – | – | – |
